According to ChEMBL document CHEMBL1139649, “Hetaryl imidazoles: a novel dual inhibitors of VEGF receptors I and II” (Bioorg Med Chem Lett, 2006):

Tests used:
[1] = target: Insulin-like growth factor 1 receptor (Homo sapiens) (UniProt P08069); experiment: […] against IGF1R at 10 uM by HTRF method
[2] = target: Epidermal growth factor receptor (Homo sapiens) (UniProt P00533); experiment: […] against ErbB1 at 10 uM by HTRF method
[3] = target: Cyclin-dependent kinase 5 (Homo sapiens) (UniProt Q00535); experiment: […] against Cdk5 at 10 uM by HTRF method
[4] = target: RAC-alpha serine/threonine-protein kinase (Homo sapiens) (UniProt P31749); experiment: […] against PKB/Akt at 10 uM by HTRF method
[5] = target: Glycogen synthase kinase-3 beta (Homo sapiens) (UniProt P49841); experiment: Inhibition against GSK3-beta at 10 uM by HTRF method; parameters: scale not given: the % may be the effect or the level left
[6] = target: T1, Vascular endothelial growth factor receptor 2 (Homo sapiens, UniProt P35968); experiment: Inhibition of VEGFR2 by enzymatic assay
[7] = target: Vascular endothelial growth factor receptor 1 (Homo sapiens, UniProt P17948); experiment: Inhibition of VEGFR1 by enzymatic assay
[8] = target: Receptor tyrosine-protein kinase erbB-2 (Homo sapiens) (UniProt P04626); experiment: […] against ErbB2 at 10 uM by HTRF method
[9] = target: Hepatocyte growth factor receptor (Homo sapiens) (UniProt P08581); experiment: Percent inhibition against c-Met at 10 uM by HTRF method; parameters: scale not given: the % may be the effect or the level left
[10] = target: cAMP-dependent protein kinase (PKA) (Homo sapiens) (UniProt P22694+P17612+P22612); experiment: Inhibition against PKA at 10 uM by HTRF method; type: protein assay; parameters: scale not given: the % may be the effect or the level left
[11] = target: Bcr/Abl fusion protein (Homo sapiens) (UniProt P00519+P11274); experiment: Inhibition of bcr-Abl at 10 uM by HTRF method; type: protein assay; parameters: scale not given: the % may be the effect or the level left
[12] = target: Receptor-type tyrosine-protein kinase FLT3 (Homo sapiens) (UniProt P36888); experiment: Inhibition of Flt3 at 10 uM by HTRF method; parameters: scale not given: the % may be the effect or the level left
[13] = target: Fibroblast growth factor receptor 1 (Homo sapiens) (UniProt P11362); experiment: Percent inhibition against FGFR1 at 10 uM by HTRF method; parameters: scale not given: the % may be the effect or the level left
[14] = target: Cyclin-dependent kinase 2 (Homo sapiens) (UniProt P24941); experiment: […] against Cdk2 at 10 uM by HTRF method
[15] = target: T2, Ephrin type-B receptor 4 (Homo sapiens) (UniProt P54760); experiment: Percent inhibition against EphB4 at 10 uM by HTRF method; parameters: scale not given: the % may be the effect or the level left
T2 sequence (whole entry): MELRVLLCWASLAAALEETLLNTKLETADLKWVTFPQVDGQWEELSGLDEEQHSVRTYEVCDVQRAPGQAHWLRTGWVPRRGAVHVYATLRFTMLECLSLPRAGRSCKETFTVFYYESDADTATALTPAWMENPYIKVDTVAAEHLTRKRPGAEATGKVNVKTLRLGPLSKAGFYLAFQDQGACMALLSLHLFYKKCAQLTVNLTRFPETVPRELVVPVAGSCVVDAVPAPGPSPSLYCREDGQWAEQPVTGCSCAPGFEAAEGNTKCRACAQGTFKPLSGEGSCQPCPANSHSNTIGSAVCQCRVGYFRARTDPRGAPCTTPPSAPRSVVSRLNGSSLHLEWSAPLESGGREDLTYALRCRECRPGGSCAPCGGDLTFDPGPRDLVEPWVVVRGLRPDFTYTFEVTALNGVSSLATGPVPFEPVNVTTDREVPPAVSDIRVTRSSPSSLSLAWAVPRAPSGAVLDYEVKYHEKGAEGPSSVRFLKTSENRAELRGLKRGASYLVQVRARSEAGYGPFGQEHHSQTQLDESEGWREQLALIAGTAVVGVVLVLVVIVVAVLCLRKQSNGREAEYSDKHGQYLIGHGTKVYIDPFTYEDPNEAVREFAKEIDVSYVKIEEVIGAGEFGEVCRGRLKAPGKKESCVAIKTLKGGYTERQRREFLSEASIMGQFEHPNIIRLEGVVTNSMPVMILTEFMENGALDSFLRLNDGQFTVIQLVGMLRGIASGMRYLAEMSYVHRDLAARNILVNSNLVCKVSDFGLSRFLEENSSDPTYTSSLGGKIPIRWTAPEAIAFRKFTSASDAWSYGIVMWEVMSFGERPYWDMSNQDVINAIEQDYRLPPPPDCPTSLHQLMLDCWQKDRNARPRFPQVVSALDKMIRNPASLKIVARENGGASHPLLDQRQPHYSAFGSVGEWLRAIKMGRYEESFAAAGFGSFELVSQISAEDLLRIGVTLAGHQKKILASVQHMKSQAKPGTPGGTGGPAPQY

[16] = target: T1, Vascular endothelial growth factor receptor 2; experiment: Inhibition of VEGFR2 in 293 adenovirus transfected kidney cells by cell-based ELISA assay

Sequence of Hepatocyte growth factor receptor (Homo sapiens) (P08581 whole entry): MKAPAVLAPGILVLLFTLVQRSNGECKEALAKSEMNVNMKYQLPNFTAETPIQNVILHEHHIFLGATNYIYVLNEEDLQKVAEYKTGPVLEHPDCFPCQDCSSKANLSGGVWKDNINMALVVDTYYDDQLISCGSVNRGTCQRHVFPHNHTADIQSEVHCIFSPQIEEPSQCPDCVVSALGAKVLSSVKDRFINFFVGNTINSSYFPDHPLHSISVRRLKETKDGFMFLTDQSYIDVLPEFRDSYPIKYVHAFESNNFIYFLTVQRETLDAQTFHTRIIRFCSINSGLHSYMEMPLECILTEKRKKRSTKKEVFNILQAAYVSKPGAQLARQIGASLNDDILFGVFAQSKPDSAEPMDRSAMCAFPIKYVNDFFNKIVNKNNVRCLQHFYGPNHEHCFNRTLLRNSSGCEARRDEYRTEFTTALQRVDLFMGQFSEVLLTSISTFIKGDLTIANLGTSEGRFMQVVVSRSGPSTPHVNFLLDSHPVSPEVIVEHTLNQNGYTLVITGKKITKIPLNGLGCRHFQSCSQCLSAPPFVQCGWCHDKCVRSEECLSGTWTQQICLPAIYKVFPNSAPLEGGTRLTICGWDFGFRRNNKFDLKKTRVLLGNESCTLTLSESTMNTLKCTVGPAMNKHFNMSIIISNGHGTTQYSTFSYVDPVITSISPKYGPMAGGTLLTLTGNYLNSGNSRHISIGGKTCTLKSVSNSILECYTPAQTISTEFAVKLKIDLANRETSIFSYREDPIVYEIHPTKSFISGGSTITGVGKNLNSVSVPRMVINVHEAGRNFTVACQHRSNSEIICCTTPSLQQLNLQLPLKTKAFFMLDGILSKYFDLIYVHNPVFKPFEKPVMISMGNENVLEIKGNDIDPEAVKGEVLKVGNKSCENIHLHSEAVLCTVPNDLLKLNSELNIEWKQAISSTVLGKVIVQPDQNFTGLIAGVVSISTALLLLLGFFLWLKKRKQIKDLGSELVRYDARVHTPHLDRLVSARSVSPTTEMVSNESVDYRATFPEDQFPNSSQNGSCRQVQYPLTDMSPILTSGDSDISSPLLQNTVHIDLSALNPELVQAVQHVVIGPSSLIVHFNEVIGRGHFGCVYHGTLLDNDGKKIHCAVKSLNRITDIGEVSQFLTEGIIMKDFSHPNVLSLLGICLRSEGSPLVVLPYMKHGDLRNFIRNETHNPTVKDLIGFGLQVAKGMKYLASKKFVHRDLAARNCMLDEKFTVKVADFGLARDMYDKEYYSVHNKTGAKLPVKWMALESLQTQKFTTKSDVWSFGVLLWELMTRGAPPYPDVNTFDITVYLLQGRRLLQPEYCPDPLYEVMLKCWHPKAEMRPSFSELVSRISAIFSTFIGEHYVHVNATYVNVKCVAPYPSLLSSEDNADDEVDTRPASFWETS
Sequence of Fibroblast growth factor receptor 1 (Homo sapiens) (P11362 22-822 limits assumed): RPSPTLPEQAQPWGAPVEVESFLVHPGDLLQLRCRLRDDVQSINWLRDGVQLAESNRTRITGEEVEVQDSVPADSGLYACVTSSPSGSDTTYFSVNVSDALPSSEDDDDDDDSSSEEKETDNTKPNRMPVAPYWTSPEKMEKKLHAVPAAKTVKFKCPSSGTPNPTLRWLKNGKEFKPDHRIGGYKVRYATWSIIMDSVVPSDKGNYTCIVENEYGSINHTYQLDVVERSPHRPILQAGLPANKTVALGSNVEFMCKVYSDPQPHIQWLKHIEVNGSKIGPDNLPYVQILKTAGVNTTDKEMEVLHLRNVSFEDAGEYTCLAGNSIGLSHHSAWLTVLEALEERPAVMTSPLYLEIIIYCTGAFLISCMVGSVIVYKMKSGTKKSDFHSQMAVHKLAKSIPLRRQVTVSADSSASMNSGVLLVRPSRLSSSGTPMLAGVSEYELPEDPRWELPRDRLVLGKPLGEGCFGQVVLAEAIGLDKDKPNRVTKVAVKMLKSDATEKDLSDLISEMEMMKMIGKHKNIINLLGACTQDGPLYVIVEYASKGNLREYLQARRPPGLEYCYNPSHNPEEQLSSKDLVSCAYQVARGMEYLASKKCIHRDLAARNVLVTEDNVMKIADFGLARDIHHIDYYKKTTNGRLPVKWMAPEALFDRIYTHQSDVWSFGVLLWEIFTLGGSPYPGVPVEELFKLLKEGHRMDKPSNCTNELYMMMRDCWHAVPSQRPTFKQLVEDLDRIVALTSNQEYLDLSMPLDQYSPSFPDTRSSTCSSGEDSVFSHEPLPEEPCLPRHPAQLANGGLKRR
Sequence of Bcr/Abl fusion protein (Homo sapiens) (P00519 whole entry, looked up, the tested form may be a part): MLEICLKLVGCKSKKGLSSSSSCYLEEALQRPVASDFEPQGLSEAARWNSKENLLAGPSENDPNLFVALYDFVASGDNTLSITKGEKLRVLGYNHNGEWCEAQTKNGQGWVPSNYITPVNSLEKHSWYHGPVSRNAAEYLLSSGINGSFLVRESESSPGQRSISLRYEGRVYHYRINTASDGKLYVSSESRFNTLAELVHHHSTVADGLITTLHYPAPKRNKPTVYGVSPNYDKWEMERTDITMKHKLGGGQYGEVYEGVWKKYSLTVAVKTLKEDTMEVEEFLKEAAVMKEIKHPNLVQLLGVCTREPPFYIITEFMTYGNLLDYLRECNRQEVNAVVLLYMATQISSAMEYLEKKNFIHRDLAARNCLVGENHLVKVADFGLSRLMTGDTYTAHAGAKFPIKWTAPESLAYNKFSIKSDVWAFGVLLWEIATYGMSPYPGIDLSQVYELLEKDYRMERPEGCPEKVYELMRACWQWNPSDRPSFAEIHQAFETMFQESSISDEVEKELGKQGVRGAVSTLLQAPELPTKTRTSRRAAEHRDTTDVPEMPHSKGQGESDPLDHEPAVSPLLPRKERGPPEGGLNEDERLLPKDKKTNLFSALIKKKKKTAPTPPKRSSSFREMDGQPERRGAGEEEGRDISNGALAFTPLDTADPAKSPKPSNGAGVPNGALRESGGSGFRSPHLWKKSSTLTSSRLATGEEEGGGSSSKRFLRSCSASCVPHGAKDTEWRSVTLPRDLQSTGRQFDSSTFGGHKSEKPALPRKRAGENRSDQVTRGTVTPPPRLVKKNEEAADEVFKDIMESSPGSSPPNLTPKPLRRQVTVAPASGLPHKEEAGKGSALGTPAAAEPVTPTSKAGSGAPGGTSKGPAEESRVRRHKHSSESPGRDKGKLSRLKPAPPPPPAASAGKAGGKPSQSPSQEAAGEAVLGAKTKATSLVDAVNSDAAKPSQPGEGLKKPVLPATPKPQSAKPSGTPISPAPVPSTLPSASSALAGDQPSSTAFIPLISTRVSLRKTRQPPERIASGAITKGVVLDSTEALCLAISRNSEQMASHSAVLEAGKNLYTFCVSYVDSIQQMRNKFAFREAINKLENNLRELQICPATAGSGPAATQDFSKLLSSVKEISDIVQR
Sequence of Bcr/Abl fusion protein (Homo sapiens) (P11274 whole entry, looked up, the tested form may be a part): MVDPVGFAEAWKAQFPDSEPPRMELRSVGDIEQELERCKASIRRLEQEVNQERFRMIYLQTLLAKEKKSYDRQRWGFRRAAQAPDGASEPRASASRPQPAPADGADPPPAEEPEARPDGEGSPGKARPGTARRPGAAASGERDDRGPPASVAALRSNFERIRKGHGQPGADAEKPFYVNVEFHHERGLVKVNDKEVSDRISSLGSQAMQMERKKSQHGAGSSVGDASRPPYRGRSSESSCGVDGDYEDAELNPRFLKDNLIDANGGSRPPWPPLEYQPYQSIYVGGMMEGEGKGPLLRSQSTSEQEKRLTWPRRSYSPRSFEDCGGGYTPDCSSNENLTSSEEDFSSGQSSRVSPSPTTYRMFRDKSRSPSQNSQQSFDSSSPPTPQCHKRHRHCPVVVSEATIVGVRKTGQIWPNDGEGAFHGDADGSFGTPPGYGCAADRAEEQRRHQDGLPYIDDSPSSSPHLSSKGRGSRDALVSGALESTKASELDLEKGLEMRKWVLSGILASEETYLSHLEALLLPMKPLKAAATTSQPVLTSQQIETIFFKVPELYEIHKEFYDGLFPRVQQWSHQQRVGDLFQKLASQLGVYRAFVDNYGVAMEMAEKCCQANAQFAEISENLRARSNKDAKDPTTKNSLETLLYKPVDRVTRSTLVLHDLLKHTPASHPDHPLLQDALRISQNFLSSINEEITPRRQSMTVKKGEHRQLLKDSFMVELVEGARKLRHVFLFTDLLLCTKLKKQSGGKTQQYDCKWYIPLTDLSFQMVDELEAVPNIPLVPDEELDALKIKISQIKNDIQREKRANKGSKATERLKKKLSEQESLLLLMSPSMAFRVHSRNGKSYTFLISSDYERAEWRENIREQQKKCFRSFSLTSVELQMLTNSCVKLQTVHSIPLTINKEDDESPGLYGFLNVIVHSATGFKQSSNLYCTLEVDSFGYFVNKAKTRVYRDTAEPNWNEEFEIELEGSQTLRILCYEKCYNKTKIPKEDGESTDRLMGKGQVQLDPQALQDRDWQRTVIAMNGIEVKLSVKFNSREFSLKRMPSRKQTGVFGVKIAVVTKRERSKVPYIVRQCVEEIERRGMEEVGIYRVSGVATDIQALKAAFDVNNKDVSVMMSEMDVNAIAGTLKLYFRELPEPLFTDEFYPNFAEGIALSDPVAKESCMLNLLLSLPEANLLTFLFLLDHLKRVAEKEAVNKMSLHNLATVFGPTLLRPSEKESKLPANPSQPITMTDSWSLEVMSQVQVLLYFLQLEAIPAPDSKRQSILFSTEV
Sequence of RAC-alpha serine/threonine-protein kinase (Homo sapiens) (P31749 whole entry): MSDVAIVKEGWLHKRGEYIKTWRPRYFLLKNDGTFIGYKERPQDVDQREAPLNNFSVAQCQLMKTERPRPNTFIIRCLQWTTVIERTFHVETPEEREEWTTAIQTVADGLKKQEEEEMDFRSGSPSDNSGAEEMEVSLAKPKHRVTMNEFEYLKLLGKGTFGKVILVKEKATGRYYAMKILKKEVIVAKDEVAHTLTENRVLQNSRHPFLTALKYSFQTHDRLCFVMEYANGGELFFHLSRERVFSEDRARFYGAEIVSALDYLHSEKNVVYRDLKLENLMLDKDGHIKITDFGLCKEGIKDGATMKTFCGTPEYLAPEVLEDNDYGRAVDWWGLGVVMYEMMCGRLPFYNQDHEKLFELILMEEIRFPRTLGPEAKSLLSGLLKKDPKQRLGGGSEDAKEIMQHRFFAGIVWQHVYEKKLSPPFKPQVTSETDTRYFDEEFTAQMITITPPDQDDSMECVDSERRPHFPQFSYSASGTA

SMILES | Activity [1] [%] | Percent inhibition [2] [%] | Activity [3] [%] | Activity [4] [%] | Activity [5] [%] | IC50 [6] [nM] | IC50 [7] [nM] | Activity [8] [%] | Activity [9] [%] | Activity [10] [%] | Activity [11] [%] | Activity [12] [%] | Activity [13] [%] | Percent inhibition [14] [%] | Activity [15] [%] | IC50 [16] [nM]
Cn1cnc(NCc2ccc3[nH]ncc3c2)c1-c1nnc(Nc2ccc(Cl)cc2)o1 | < 30 | < 30 | < 30 | < 30 | < 30 | 2370 | > 10000 | < 30 | < 30 | < 30 | < 30 | < 30 | < 30 | < 30 | < 30 | > 10000
Cn1cnc(NCc2cccnc2)c1-c1nnc(Nc2ccc(Cl)cc2)o1 | < 30 | < 30 | < 30 | < 30 | < 30 | > 10000 | > 10000 | < 30 | < 30 | < 30 | < 30 | < 30 | < 30 | < 30 | < 30 | > 10000
Cn1cnc(NCc2ccc3ccccc3n2)c1-c1nnc(Nc2ccc(Cl)cc2)o1 | < 30 | < 30 | < 30 | < 30 | < 30 | > 10000 | > 10000 | < 30 | < 30 | < 30 | < 30 | < 30 | < 30 | < 30 | < 30 | > 10000
Cn1cnc(NCc2ccncc2)c1-c1nnc(NCc2ccc3c(c2)OCO3)o1 | < 30 | < 30 | < 30 | < 30 | < 30 | 140 | 440 | < 30 | < 30 | < 30 | < 30 | < 30 | < 30 | < 30 | < 30 | 270
Cn1cnc(NCc2ccncc2)c1-c1nnc(Nc2ccc(Cl)cc2)o1 | < 30 | < 30 | < 30 | < 30 | < 30 | 250 | 340 | < 30 | < 30 | < 30 | < 30 | < 30 | < 30 | < 30 | < 30 | 570
Cn1cnc(NCc2ccncc2)c1-c1nnc(Nc2ccc(C(C)(C)C)cc2)o1 | < 30 | < 30 | < 30 | < 30 | < 30 | 380 | 890 | < 30 | < 30 | < 30 | < 30 | < 30 | < 30 | < 30 | < 30 | 1050
Cn1cnc(NCc2ccc(F)c(F)c2)c1-c1nnc(Nc2ccc(Cl)cc2)o1 | < 30 | < 30 | < 30 | < 30 | < 30 | 1860 | 3310 | < 30 | < 30 | < 30 | < 30 | < 30 | < 30 | < 30 | < 30 | 5650
Cn1cnc(NCc2cccc3ncccc23)c1-c1nnc(Nc2ccc(Cl)cc2)o1 | < 30 | < 30 | < 30 | < 30 | < 30 | 3540 | > 10000 | < 30 | < 30 | < 30 | < 30 | < 30 | < 30 | < 30 | < 30 | > 10000
CC(C)c1ccc(Nc2nnc(-c3c(NCc4ccncc4)ncn3C)o2)cc1 | < 30 | < 30 | < 30 | < 30 | < 30 | 440 | 770 | < 30 | < 30 | < 30 | < 30 | < 30 | < 30 | < 30 | < 30 | 1150
Cc1ccc(Nc2nnc(-c3c(NCc4ccncc4)ncn3C)o2)c(F)c1 | < 30 | < 30 | < 30 | < 30 | < 30 | 260 | 590 | < 30 | < 30 | < 30 | < 30 | < 30 | < 30 | < 30 | < 30 | 640
Cn1cnc(NCc2ccccn2)c1-c1nnc(Nc2ccc(Cl)cc2)o1 | < 30 | < 30 | < 30 | < 30 | < 30 | > 10000 | > 10000 | < 30 | < 30 | < 30 | < 30 | < 30 | < 30 | < 30 | < 30 | > 10000
Cn1cnc(NCCc2ccc3c(c2)OCO3)c1-c1nnc(Nc2ccc(Cl)cc2)o1 | < 30 | < 30 | < 30 | < 30 | < 30 | 960 | 1470 | < 30 | < 30 | < 30 | < 30 | < 30 | < 30 | < 30 | < 30 | > 10000
Cn1cnc(NCc2ccncc2)c1-c1nnc(Nc2ccc(Cl)c(Cl)c2)o1 | < 30 | < 30 | < 30 | < 30 | < 30 | 180 | 490 | < 30 | < 30 | < 30 | < 30 | < 30 | < 30 | < 30 | < 30 | 260
Cn1cnc(NCc2ccncc2)c1-c1nnc(Nc2cccc(OC(F)(F)F)c2)o1 | < 30 | < 30 | < 30 | < 30 | < 30 | 46 | 560 | < 30 | < 30 | < 30 | < 30 | < 30 | < 30 | < 30 | < 30 | 130
